≈ marks a conversion by molar mass, not a printed value.

The first assay concerns Staphylococcus aureus. Put plainly: Antibacterial activity against Staphylococcus aureus MTCC 96 assessed as zone of inhibition preincubated for 2 to 3 hrs followed by 12 to 24 hrs incubation at aerobic condition by well diffusion method. It counts as functional. The settings on record: time 14-27 hrs.
For `CC1=CC(=O)[C@H]2C(C)(C)CCC[C@]2(C)[C@H]1/C=C/c1ccoc1Sc1cccc(Cl)c1`, the “inhibition zone (IZ)” value is recorded as 6 mm.

Target in another assay: not listed separately
Put plainly: Inhibition of Saccharomyces cerevisiae alpha-glucosidase using pNPG as substrate preincubated for 5 mins followed by pNPG addition and measured after 10 mins by microplate reader method.
Conditions: not given
Consider `COc1ccccc1Sc1occc1/C=C/[C@H]1C(C)=CC(=O)[C@H]2C(C)(C)CCC[C@]12C`, for which the IC50 is 11.82 µg/mL (≈ 27.1 µM).
The same measure, in the same setting: the same measure for `CC1=CC(=O)[C@H]2C(C)(C)CCC[C@]2(C)[C@H]1/C=C/c1ccoc1Sc1ccccc1F`: 12.15 µg/mL (≈ 28.6 µM).
The same measure, in the same setting: the same measure for `CC1=CC(=O)[C@H]2C(C)(C)CCC[C@]2(C)[C@H]1/C=C/c1ccoc1Sc1ccc2ccccc2c1`: 9.7 µg/mL (≈ 21.2 µM).
On the same count and under the same terms, as for `CC1=CC(=O)[C@H]2C(C)(C)CCC[C@]2(C)[C@H]1/C=C/c1ccoc1Sc1ccc(F)cc1`, the figure is 9.7 µg/mL (≈ 22.8 µM); as for `CC1=CC(=O)[C@H]2C(C)(C)CCC[C@]2(C)[C@H]1/C=C/c1ccoc1Sc1ccccc1Br`, 13.01 µg/mL (≈ 26.8 µM).
In turn, `CC1=CC(=O)[C@H]2C(C)(C)CCC[C@]2(C)[C@H]1/C=C/c1ccoc1SCc1ccc(F)cc1` returned an IC50 of 9.7 µg/mL (≈ 22.1 µM).
On the same count and under the same terms, the same measure for `CC1=CC(=O)[C@H]2C(C)(C)CCC[C@]2(C)[C@H]1/C=C/c1ccoc1Sc1ccc(Br)cc1`: 9.7 µg/mL (≈ 20 µM).
The same measure, in the same setting: the same measure for `CC1=CC(=O)[C@H]2C(C)(C)CCC[C@]2(C)[C@H]1/C=C/c1ccoc1Sc1cccc(F)c1`: 9.7 µg/mL (≈ 22.8 µM).
For the molecule `CC1=CC(=O)[C@H]2C(C)(C)CCC[C@]2(C)[C@H]1/C=C/c1ccoc1Sc1cccc(Cl)c1`, the half-maximal inhibitory concentration (IC50) came to 9.7 µg/mL (≈ 22 µM).
The same measure, in the same setting: the same measure for `CC1=CC(=O)[C@H]2C(C)(C)CCC[C@]2(C)[C@H]1/C=C/c1ccoc1Sc1ccccc1Cl`: 9.7 µg/mL (≈ 22 µM); for `CSc1ccc(Sc2occc2/C=C/[C@H]2C(C)=CC(=O)[C@H]3C(C)(C)CCC[C@]23C)cc1`: 9.7 µg/mL (≈ 21.4 µM).
On the same count and under the same terms, as for `CC1=CC(=O)[C@H]2C(C)(C)CCC[C@]2(C)[C@H]1/C=C/c1ccoc1SCc1ccc(Cl)cc1`, the figure is 9.7 µg/mL (≈ 21.3 µM); as for `CC1=CC(=O)[C@H]2C(C)(C)CCC[C@]2(C)[C@H]1/C=C/c1ccoc1Sc1cccc(C)c1`, 9.7 µg/mL (≈ 23.1 µM).
Take `CC1=CC(=O)[C@H]2C(C)(C)CCC[C@]2(C)[C@H]1/C=C/c1ccoc1Sc1ccccc1C`: the IC50 is 9.7 µg/mL (≈ 23.1 µM).
Turning to `CC1=CC(=O)[C@H]2C(C)(C)CCC[C@]2(C)[C@H]1/C=C/c1ccoc1Sc1ccc(Cl)cc1`, the IC50 was 9.7 µg/mL (≈ 22 µM).
The same measure, in the same setting: the same measure for `CC1=CC(=O)[C@H]2C(C)(C)CCC[C@]2(C)[C@H]1/C=C/c1ccoc1SCc1ccccc1`: 13.34 µg/mL (≈ 31.7 µM); for `CC1=CC(=O)[C@H]2C(C)(C)CCC[C@]2(C)[C@H]1/C=C/c1ccoc1Sc1cccc(Br)c1`: 12.23 µg/mL (≈ 25.2 µM).
In the case of `CC1=CC(=O)[C@H]2C(C)(C)CCC[C@]2(C)[C@H]1/C=C/c1ccoc1Sc1ccccc1`, the IC50 was determined as 13.17 µg/mL (≈ 32.4 µM).
Same read-out and setting: as for `CC1=CC(=O)[C@H]2C(C)(C)CCC[C@]2(C)[C@H]1/C=C/c1ccoc1Sc1ccc(Cl)cc1Cl`, the figure is 9.7 µg/mL (≈ 20.4 µM); as for `C[C@H]1O[C@H](O[C@H]2[C@H](O)[C@@H](O)[C@@H](O[C@H]3[C@H](O)[C@@H](O)C(O)O[C@@H]3CO)O[C@@H]2CO)[C@H](O)[C@@H](O)[C@@H]1N[C@H]1C=C(CO)[C@@H](O)[C@H](O)[C@H]1O` (stereo partly specified) [ACARBOSE], 3.95 µg/mL (≈ 6.12 µM).

The term IC50 denotes the concentration at which inhibition is half-maximal. Higher therefore signals lower potency.

The record behind these values is ChEMBL document CHEMBL5120915, “Synthesis of Sulfur-Containing Analogues of Hedychenone, a Labdane Diterpenoid from Hedychium spicatum” (J Nat Prod, 2022).
